From ChEMBL document CHEMBL5465560, “Selectivity Literature for EUbOPEN Chemogenomic Library” (2024)

Assays:
[1] = molecular target: Cyclin-dependent kinase 1 (Homo sapiens) (UniProt P06493); assay: Selectivity interaction (Kinase screening (Nanosyn)) EUB0000604a CDK1
[2] = molecular target: AP2-associated protein kinase 1 (Homo sapiens, UniProt Q2M2I8); assay: Selectivity interaction (Ambit KINOMEscan and KiNATiv profiling in Jurkat cells) EUB0000090b AAK1; type: cell-based; details: at 1 µM
[3] = molecular target: Serine/threonine-protein kinase Chk2 (Homo sapiens) (UniProt O96017); assay: Selectivity interaction (ActivX KiNativ screen (kinase selectivity in THP-1 cell lysates)) EUB0000639a CHEK2; type: subcellular; details: lysate, at 1 µM
[4] = molecular target: Protein arginine N-methyltransferase 5 (Homo sapiens, UniProt O14744); assay: Selectivity interaction (Methyltransferase screen (radiometric assays, panel of 8 PRMTs, 21 protein lysine methyltransferases, 3 DNA methyltransferases, and one RNA methyltransferase)) EUB0000272b PRMT5
Chain of Protein arginine N-methyltransferase 5 (O14744 whole entry): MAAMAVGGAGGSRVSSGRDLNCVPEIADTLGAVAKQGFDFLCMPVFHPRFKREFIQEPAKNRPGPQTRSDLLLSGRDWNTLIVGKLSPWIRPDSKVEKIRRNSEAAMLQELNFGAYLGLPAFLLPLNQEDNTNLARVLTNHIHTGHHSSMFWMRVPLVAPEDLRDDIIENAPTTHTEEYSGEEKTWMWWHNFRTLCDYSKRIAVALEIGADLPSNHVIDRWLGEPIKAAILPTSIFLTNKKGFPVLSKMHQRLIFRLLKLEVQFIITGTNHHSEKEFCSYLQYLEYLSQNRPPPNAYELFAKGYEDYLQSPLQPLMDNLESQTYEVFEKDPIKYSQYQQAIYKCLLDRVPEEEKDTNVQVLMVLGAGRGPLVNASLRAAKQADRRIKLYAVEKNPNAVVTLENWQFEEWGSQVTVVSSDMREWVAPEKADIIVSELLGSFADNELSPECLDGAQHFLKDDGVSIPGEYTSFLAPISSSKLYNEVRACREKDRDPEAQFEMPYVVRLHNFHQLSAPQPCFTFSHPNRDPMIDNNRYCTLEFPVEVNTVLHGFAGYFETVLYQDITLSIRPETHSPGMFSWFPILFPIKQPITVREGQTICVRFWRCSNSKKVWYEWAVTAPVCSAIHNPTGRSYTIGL

[5] = molecular target: T1, Mitogen-activated protein kinase kinase kinase 5 (Homo sapiens) (UniProt Q99683); assay: Selectivity interaction (KinomeScan (DiscoverX)) EUB0001079a MAP3K5; details: at 1 µM
T1 sequence (whole entry): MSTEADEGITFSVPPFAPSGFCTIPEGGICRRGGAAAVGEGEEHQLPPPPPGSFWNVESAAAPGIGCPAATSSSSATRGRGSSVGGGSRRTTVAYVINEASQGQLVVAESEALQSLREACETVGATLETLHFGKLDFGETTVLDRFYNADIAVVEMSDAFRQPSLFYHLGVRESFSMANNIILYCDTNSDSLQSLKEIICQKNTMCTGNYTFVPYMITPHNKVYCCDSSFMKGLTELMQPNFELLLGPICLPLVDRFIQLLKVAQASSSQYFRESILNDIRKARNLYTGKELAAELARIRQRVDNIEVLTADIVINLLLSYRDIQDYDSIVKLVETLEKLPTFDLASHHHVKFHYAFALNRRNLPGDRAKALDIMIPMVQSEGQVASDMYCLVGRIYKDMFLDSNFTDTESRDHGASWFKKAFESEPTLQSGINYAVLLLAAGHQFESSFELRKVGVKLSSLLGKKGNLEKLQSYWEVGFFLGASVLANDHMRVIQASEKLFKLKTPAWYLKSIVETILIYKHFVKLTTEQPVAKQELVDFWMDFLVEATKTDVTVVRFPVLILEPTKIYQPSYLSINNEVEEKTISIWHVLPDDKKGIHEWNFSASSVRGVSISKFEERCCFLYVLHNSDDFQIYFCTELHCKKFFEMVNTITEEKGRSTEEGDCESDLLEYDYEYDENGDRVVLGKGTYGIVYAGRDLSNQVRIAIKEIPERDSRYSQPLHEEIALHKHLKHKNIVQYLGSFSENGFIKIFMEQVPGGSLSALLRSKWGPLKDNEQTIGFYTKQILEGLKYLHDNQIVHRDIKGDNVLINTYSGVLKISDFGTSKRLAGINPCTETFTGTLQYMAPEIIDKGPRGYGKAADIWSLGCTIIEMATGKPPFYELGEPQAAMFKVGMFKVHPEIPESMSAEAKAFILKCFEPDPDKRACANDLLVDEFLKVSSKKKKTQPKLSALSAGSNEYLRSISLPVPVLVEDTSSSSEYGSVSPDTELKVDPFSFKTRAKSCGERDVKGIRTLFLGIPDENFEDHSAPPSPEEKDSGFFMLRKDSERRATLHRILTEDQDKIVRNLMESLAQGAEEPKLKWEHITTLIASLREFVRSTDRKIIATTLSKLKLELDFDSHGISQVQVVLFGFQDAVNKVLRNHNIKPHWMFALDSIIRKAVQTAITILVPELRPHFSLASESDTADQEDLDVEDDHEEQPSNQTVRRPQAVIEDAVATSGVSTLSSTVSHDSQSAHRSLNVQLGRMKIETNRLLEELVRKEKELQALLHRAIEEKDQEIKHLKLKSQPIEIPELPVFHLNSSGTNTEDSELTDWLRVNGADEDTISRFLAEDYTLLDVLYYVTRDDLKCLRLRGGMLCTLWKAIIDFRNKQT

[6] = molecular target: Proto-oncogene tyrosine-protein kinase ROS (Homo sapiens) (UniProt P08922); assay: Selectivity interaction (KinomeScan (DiscoverX)) EUB0001079a ROS1; details: at 1 µM
[7] = molecular target: Myosin-IIIa (Homo sapiens) (UniProt Q8NEV4); assay: Selectivity interaction (KinomeScan (DiscoverX)) EUB0000092b MYO3A; details: at 10 µM
[8] = molecular target: Misshapen-like kinase 1 (Homo sapiens, UniProt Q8N4C8); assay: Selectivity interaction (KinomeScan (DiscoverX)) EUB0000655a MINK1; details: at 10 µM
Chain of Misshapen-like kinase 1 (Q8N4C8 whole entry, looked up): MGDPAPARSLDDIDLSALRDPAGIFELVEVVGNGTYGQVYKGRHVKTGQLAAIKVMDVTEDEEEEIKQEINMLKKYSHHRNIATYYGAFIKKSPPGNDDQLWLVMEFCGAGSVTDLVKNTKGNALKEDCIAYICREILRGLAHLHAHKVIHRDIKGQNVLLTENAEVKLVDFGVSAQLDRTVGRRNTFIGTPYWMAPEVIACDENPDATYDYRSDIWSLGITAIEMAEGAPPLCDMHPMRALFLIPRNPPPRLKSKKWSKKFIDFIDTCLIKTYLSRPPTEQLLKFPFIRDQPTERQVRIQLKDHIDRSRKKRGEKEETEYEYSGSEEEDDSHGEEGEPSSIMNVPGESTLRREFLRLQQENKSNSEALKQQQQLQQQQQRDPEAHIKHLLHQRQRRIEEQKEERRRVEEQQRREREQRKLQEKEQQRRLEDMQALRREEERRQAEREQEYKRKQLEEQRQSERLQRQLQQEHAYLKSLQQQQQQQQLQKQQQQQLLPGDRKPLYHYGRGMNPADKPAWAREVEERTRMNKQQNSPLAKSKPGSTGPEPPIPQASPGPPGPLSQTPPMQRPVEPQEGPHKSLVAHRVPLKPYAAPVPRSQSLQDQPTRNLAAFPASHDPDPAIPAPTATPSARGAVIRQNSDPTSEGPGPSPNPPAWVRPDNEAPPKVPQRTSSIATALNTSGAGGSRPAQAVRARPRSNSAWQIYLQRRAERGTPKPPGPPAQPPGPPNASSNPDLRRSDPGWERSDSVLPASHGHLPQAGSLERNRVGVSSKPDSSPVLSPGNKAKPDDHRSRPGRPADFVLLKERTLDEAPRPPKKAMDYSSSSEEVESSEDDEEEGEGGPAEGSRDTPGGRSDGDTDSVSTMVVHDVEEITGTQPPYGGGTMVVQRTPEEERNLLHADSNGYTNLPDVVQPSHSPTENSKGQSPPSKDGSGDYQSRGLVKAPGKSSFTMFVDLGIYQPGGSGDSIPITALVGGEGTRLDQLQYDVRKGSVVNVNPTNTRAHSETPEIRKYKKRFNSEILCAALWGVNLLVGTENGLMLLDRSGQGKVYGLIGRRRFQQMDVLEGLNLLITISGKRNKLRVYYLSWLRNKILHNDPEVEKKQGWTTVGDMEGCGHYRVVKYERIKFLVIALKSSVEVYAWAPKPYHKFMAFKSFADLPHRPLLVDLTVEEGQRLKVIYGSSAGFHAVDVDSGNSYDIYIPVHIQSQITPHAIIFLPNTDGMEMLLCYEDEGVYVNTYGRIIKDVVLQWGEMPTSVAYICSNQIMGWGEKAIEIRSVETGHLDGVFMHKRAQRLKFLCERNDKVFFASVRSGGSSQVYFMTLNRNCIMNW

[9] = molecular target: Serine/threonine-protein kinase mTOR (Homo sapiens, UniProt P42345); assay: Selectivity interaction (KinomeScan (DiscoverX)) EUB0001619a MTOR; details: at 1 µM
[10] = molecular target: Serine/threonine-protein kinase/endoribonuclease IRE1 (Homo sapiens) (UniProt O75460); assay: Selectivity interaction (KinomeScan (DiscoverX)) EUB0000618a ERN1; details: at 10 µM
[11] = molecular target: 5-hydroxytryptamine receptor 2B (Homo sapiens, UniProt P41595); assay: Selectivity interaction (Safety Panel 44tm (Eurofins)) EUB0000162b HTR2B; details: at 10 µM
Chain of 5-hydroxytryptamine receptor 2B (P41595 whole entry): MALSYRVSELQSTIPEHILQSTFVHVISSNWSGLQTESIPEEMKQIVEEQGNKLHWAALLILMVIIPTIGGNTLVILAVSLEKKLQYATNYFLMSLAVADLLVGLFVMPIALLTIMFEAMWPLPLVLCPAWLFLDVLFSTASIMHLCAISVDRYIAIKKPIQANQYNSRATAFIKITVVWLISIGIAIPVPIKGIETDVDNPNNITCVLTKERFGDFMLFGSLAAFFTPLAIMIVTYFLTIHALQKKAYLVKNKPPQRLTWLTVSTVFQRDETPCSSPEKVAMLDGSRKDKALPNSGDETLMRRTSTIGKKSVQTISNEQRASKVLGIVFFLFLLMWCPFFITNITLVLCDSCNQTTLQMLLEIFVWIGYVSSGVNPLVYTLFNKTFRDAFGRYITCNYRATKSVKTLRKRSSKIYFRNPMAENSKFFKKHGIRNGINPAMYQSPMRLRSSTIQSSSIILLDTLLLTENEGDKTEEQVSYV

[12] = molecular target: Mitotic checkpoint serine/threonine-protein kinase BUB1 (Homo sapiens, UniProt O43683); assay: Selectivity interaction (KinomeScan (DiscoverX)) EUB0000607a BUB1; details: at 10 µM
Chain of Mitotic checkpoint serine/threonine-protein kinase BUB1 (O43683 whole entry, looked up): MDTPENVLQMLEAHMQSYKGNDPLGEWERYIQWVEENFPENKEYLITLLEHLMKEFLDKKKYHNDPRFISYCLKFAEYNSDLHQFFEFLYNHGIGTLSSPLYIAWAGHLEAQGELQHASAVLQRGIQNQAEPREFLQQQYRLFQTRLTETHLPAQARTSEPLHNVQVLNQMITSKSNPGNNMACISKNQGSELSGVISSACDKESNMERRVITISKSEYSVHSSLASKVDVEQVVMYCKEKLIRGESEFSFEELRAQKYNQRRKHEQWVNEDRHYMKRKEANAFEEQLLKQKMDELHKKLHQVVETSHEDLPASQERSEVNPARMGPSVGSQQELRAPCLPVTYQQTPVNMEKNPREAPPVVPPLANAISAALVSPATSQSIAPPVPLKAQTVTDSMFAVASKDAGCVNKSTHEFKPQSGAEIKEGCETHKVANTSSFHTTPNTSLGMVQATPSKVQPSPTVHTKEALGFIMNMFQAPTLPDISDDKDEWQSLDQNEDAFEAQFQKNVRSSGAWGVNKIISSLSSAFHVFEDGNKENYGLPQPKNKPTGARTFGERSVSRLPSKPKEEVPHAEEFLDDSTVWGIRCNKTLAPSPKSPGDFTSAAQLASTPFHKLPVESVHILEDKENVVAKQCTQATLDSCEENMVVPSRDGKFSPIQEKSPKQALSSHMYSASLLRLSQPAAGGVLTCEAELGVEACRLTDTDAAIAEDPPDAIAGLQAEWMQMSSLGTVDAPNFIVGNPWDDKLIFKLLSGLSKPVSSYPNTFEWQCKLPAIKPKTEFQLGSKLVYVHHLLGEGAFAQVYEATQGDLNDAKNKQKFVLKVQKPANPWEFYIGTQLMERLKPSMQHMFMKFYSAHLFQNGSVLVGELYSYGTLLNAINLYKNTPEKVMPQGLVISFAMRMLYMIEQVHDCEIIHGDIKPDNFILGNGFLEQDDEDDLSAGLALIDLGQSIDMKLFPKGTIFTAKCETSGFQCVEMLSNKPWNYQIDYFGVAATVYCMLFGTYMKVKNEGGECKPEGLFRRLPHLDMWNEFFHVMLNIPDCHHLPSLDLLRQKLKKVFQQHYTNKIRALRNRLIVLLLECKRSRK

Chain of AP2-associated protein kinase 1 (Q2M2I8 whole entry, looked up): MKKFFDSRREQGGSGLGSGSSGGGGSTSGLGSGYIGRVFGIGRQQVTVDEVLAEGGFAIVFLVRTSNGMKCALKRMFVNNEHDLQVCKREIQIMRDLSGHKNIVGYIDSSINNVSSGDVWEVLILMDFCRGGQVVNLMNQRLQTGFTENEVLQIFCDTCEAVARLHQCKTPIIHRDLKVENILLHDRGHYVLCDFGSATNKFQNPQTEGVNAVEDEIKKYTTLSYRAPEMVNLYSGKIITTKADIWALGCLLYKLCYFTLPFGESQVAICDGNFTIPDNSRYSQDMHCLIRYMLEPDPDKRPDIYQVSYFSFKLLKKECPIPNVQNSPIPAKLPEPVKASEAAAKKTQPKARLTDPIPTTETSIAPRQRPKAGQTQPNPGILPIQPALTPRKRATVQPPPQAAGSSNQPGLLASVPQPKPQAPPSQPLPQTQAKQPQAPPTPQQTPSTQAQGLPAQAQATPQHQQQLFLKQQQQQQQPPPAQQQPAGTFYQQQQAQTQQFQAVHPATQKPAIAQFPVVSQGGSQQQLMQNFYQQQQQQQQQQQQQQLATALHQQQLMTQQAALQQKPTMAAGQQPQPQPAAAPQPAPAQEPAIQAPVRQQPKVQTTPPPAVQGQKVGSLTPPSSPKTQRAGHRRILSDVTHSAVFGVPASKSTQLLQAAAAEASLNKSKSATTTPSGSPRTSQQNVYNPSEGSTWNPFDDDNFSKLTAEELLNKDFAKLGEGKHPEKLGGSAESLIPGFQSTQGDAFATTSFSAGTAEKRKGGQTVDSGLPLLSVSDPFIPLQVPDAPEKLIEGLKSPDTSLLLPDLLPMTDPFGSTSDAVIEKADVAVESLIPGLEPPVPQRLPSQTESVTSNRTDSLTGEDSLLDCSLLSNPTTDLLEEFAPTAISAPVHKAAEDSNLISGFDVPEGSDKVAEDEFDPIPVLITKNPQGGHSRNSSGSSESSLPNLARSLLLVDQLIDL
Chain of Cyclin-dependent kinase 1 (Homo sapiens) (P06493 whole entry, looked up): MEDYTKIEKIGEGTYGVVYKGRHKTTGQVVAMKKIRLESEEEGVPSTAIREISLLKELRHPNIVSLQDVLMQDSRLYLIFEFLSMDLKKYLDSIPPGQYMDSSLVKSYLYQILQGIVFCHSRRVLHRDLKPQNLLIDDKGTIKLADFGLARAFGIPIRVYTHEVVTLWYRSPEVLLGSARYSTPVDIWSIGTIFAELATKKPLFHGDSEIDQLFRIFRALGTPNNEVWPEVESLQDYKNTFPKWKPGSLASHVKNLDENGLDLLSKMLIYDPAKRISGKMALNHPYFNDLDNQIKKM

Q: With `Cc1cnc(Nc2ccc(F)cc2Cl)nc1-c1c[nH]c(C(=O)N[C@H](CO)c2cccc(Cl)c2)c1` as the compound, how does the % of inhibition [1] read?
A: 7%

Q: Which % of control [2] does the source give for `CN(C)C/C=C/C(=O)Nc1ccc(C(=O)N2CCCC(Nc3ncc(Cl)c(-c4c[nH]c5ccccc45)n3)C2)cc1` (stereo not drawn) here?
A: 89%

Q: For `CC[C@@H]1[C@H](F)C(=O)N[C@@H]1COc1nccc2cc(C(N)=O)c(OC)cc12` [ZIMLOVISERTIB], which % of inhibition [3] is on record?
A: 22.6%

Q: What does the source list for `Cc1cc(C)cc([C@H]2c3cc(C)ccc3NC(=O)CN2C(=O)c2ccc(Br)s2)c1`?
A: % of activity ([4]; at 1 µM): 98.7%; % of activity ([4]; at 10 µM): 99%

Q: How did the % of control [5] turn out when `Nc1cnc(N2CCc3cc(S(=O)(=O)Nc4c(F)cc(Cl)cc4F)cc(N4CCCC4=O)c32)nc1` [TP-020n] was run?
A: 83%

Q: What about the % of control [6] of the same compound?
A: 99%

Q: `CCC(=O)N1CCN(c2ccc(-n3c(=O)ccc4cnc5ccc(-c6cnc7ccccc7c6)cc5c43)cc2C(F)(F)F)CC1` was tested. Which % of control [7] did it give?
A: 100%

Q: For `CN(C)CCOc1ccc(-c2nc(-c3ccncc3)c(-c3ccc4c(c3)CC/C4=N\O)[nH]2)cc1`, which % of control [8] is on record?
A: 6%

Q: Which % of control [9] does the source give for `N#Cc1cccc(-c2c[nH]c3ncnc(N4CCOCC4)c23)c1` here?
A: 58%

Q: With `O[C@H]1CC[C@H](Nc2ncc3nc(Nc4c(F)cc(F)cc4F)n([C@H]4CCOC4)c3n2)CC1` as the compound, how does the % of control [10] read?
A: 46%

Q: For `CN(C)C(=O)Cn1cc(-c2ccc(-c3cncc4ccccc34)cc2)cn1`, which % of control [11] is on record?
A: 34%

Q: With `CNC(=O)Nc1ccc(-c2nc(N3CC4CCC(C3)O4)c3cnn(C4CCC5(CC4)OCCO5)c3n2)cc1` as the compound, how does the % of control [12] read?
A: 52%
